Assay [1] deals with MDA-MB-231 human breast adenocarcinoma. The assay is described as follows: MDA-MB-231 xenografts, primary tumour volume T/C. Type of assay: in vivo. To be noted: 200 mg/kg po qd, ratio of average tumour volume treated/vehicle control, p<0.05. As to the method: (§1) All procedures involving animals were approved by the Animal Welfare and Ethical Review Body of the Institute of Cancer Research and Cancer Research UK Manchester Institute in accordance with National Home Office regulations under the Animals (Scientific Procedures) Act 1986 and according to the guidelines of the Committee of the National Cancer Research Institute Tumour size was determined by caliper measurements of tumour length, width and depth and volume was calculated as volume=0.5236×length×width×depth (mm).
MDA-MB-231 xenografts. Ncr nude female mice at 6 weeks old from Charles River were injected into the third upper nipple mammary fat pad with MDA-MB-231 Luc 4×10^6 in 100 ul PB (50:50 Matrigel). When tumours reach a mean of 80 mm^3 around 10 days post cell inoculation the animals are allocated in 4 groups of 8. LOX inhibitor treatment is then administrated by oral gavage dosing, at 0.2 ml/20 g bodyweight once daily for up to 28 consecutive days. Tumours and weights are measured twice weekly using calipers and the animals can be imaged using non invasive method by bioluminescence using IVIS 200 imaging machine, weekly using 150 mg/kg luciferin administrate intraperitoneal or subcutaneous. At the end of the study the animals are culled, and samples taken, fixed or snap frozen in liquid nitrogen. Frozen samples kept at −80 degree centigrade until being analyzed and the fixed samples stained according to desired marker.
(§2) For therapeutic efficacy assessment, the ratio of average tumour volume between compound treated and vehicle control treated (T/C) is calculated. Reduction in tumour volume in the compound treated group compared to vehicle-treated control group results in T/C<1. The efficacy of LOX inhibitors described in this invention, as measured by T/C in a pancreatic cancer model, a colorectal cancer model and a breast cancer model is shown in Table 2 and is significant (p<0.05) for all the data presented.

Another assay has as its target T1, LOX (Mus musculus, UniProt P28301).
T1 construct: Full length LOX cDNA was then PCR cloned into pEGFP-N1 (Clonetech), or biosensor vector proGFP2-N1; expressed in transfected cells; host or cells: MDCK cells grown as cysts on Matrigel, G418-selected
T1 sequence (P28301 163-411): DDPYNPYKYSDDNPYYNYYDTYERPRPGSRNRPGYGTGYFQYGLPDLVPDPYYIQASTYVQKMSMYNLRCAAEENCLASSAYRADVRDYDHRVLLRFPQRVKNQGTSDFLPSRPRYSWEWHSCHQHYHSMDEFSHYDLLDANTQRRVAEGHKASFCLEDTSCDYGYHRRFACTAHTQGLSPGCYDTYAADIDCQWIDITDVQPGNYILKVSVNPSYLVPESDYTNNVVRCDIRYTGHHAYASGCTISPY
Description: LOX activity in cysts assay (LOX-roGFP2 biosensor, MDCK cysts). In kind it is cell-based. Particulars: for inhibition at 10 µM: read-out: LOX biosensor inhibition (cyst) @ 10 uM; for IC50: roGFP2 ratio at basal surface, read-out: LOX biosensor IC50 (cyst). As to the method:
LOX Activity in Cysts Assay (Tang et al, 2017).
All cell lines used in this study were purchased from American Type Culture Collection (ATCC). Mycoplasma contamination was routinely monitored by PCR. Cells used were not found to be Mycoplasma positive. MDCK cell lines were cultured in Dulbecco's Modified Eagle Medium (DMEM) supplemented with 10% fetal bovine serum (FBS) and 1% Penicillin Streptomycin solution (Pen Strep). For GFP constructs transfection in MDCK cells, lipofectamine 3000 was used according to manufactures protocols. Cells were either selected with G418 (Life Technologies) at 5 mg/ml. All cell culture reagents were purchased from Life Technologies.
To produce MDCK cysts, cells were cultured on Matrigel (Corning) with 2% Matrigel supplemented in DMEM with 10% FBS. Cysts were allowed to form for 10 days before subsequent studies.
Mouse LOX cDNA was purchased from OriGene. Full length LOX cDNA was then PCR cloned into pEGFP-N1 (Clonetech), or biosensor vector proGFP2-N1 (Hanson, 2004) using the following primers, […] (forward primer) and […] (reverse primer). For the insertion into pEGFP-N1 or proGFP2-N1, NheI and XhoI restriction sites were added to forward and reverse primers accordingly. Mutant LOX constructs were made using QuickChange II site-directed mutagenesis kit (Agilent Technologies) following manufacture's protocol using LOX-GFP as template. To generate, roGFP2 versions of LOX mutant constructs, LOX mutant cDNA was transferred from pEGFP-N1 to proGFP2-N1 using NheI and XhoI.
All photomicrographs were taken with a Leica TCS SP8 X confocal system. For LOX biosensor imaging, live MDCK cysts were used. The oxidised biosensor was excited using a 405 nm laser, while the reduced biosensor was excited with a 488 nm laser. Emission of the biosensor was recorded at 500 nm˜530 nm range using sequential scans. Ratio images were generated following a published protocol {Kardash, 2011 #376}. Note, while the published protocol generates YFP/CFP ratio images, we used it to generate Oxidised/Reduced (roGFP2 ratio) ratio images. The roGFP2 ratio at the basal surface of MDCK cysts was used to indicate LOX inhibition. LOX inhibitors were added 30 min prior to imaging.
For clarity, readout for DMSO treated cysts represents 0% inhibition (no inhibition) and readout for BAPN at 1 mM is used as 100% inhibition (full inhibition).

The test system of assay [2] is MMTV-PyMT breast transgenic model primary tumour. Description: MMTV-PyMT transgenic mouse breast cancer model, primary tumour T/C. To be noted: 200 mg/kg po qd; ratio of average tumour volume treated/vehicle control; p<0.05. Type of assay: in vivo. As to the method:
as §1
(§3) MMTV-PyMT (Guy et al, 1992) (FVB) female mice were randomized by non-statistical methods to LOX inhibitor treatment groups from day 70 post-birth, when animals had no detectable tumour. Mice were treated daily by oral gavage with LOX inhibitor in vehicle, or daily vehicle (5% DMSO/2.5% Tween20 in water) by oral gavage. Tumour size was determined unblinded by caliper measurements of tumour length, width and depth and volume was calculated as 0.5236×length×width×depth (mm). In all experiments, mice were humanely killed and mammary tumours and lungs were collected when the primary tumours reached ethical limits or signs of ill health.
as §2

Assay [3] deals with MMTV-PyMT breast transgenic model lung metastases. Description: MMTV-PyMT transgenic mouse breast cancer model, lung metastases quantification T/C. In kind it is in vivo. Particulars: 200 mg/kg po qd, treated/vehicle control, p<0.05. As to the method: as §3
For lung metastases quantification, all mouse tissue samples were fixed in 10% formalin (Sigma) and embedded in paraffin. Samples were sectioned and hematoxylin and eosin (H&E) stained. Samples were imaged with a Leica CN400 slide scanner. Lung metastases were manually selected using Pen tool in ImageScope. Lung metastases number was counted and area was measured using ImageScope. The investigator was blinded to the experimental groups. The ratio of average metastases surface between compound treated and vehicle control treated (TIC) is calculated. The ratio of average metastases numbers between compound treated and vehicle control treated (T/C) is also calculated. Reduction in metastases area and/or in metastatses number in the compound treated group compared to vehicle-treated control group results in T/C<1. The antimetastatic efficacy of LOX inhibitors described in this invention, as measured by T/C in a model of breast cancer metastasising to lungs is shown in Table 2 and is significant (p<0.05) for all the data presented.

The mark [4] stands for this setting: 10 uM, MDCK cysts, inhibitor added 30 min prior to imaging, DMSO = 0%, BAPN 1 mM = 100% inhibition.

Each structure is given as a SMILES string. Where two headings read alike, the source gives them in different places.

The term inhibition denotes how much of the control response was suppressed. For orientation: IC50 means the point on the concentration scale where inhibition reaches its midpoint.

As for `COCCOc1ccc(N2C[C@H]3CN(C(=O)NCCO)C[C@@H]2C(C)(C)C3)cc1` [Example 27, (1S,5S)-N-(2-Hydroxyethyl)-6-(4-(2-methoxyethoxy)phenyl)-9,9-dimethyl-3,6-diazabicyclo[3.2.2]nonane-3-carboxamide], the response vs control in vivo at 200 mg/kg in assay [1] amounted to 60%. Besides, the inhibition at 10 µM on LOX (setting [4]) turned out to be 88%. The IC50 on LOX (MDCK cysts) worked out at 990 nM.
Consider `CC1(C)C[C@@H]2CN(C(=O)NC3CCOCC3)C[C@H]1N(c1ccc(N3CCS(=O)(=O)CC3)cc1)C2` [Example 7, (1S,5S)-6-(4-(1,1-dioxidothiomorpholino)phenyl)-9,9-dimethyl-N-(tetrahydro-2H-pyran-4-yl)-3,6-diazabicyclo[3.2.2]nonane-3-carboxamide], for which the response vs control in vivo at 200 mg/kg in assay [1] is 34%. At LOX (setting [4]), the inhibition at 10 µM amounted to 88%. Besides, the IC50 at LOX (MDCK cysts) came out at 540 nM. For the same compound, the “T/C MMT-PyMT breast transgenic model - primary tumour” value in assay [2] amounted to 0.25.
In the case of `CC1(C)C[C@@H]2CN(C(=O)NCCO)C[C@H]1N(c1ccc(N3CCOCC3)cc1)C2` [Example 4, (1S,5S)—N-(2-hydroxyethyl)-9,9-dimethyl-6-(4-morpholinophenyl)-3,6-diazabicyclo[3.2.2]nonane-3-carboxamide], the response vs control in vivo at 200 mg/kg in assay [1] was 35%. In addition, the inhibition at 10 µM on LOX (setting [4]) came out at 88%. Moreover, the IC50 on LOX (MDCK cysts) came out at 610 nM.
In the same order, the values of `CC1(C)C[C@@H]2CN(CCCC#N)C[C@H]1N(c1ccc(N3CCS(=O)(=O)CC3)cc1)C2` [Example 39, 4-((1R,5S)-6-(4-(1,1-dioxidothiomorpholino)phenyl)-9,9-dimethyl-3,6-diazabicyclo[3.2.2]nonan-3-yl)butanenitrile] are 48%, 75% and 3180 nM.
As for `CC1(C)C[C@@H]2CN(C(=O)N3CCOCC3)C[C@H]1N(c1ccc(N3CCS(=O)(=O)CC3)cc1)C2` [Example 10, ((1S,5S)-6-(4-(1,1-dioxidothiomorpholino)phenyl)-9,9-dimethyl-3,6-diazabicyclo[3.2.2]nonan-3-yl)(morpholino)methanone], in assay [1], the response vs control in vivo at 200 mg/kg came out at 39%. The inhibition at 10 µM at LOX (setting [4]) was determined as 100%. Also, on LOX (MDCK cysts), the IC50 was less than 180 nM. In addition, in assay [2], the “T/C MMT-PyMT breast transgenic model - primary tumour” value stood at 0.11. The “T/C MMT-PyMT breast transgenic model - metastases b) Area” value in assay [3] (lung metastases area) was “b) 0.0006”. For the same compound, the “T/C MMT-PyMT breast transgenic model - metastases a) Count” value in assay [3] (lung metastases number) is on record as “a) 0.02”.
For `CC1(C)C[C@@H]2CN(C(=O)CCC#N)C[C@H]1N(c1ccc(N3CCS(=O)(=O)CC3)cc1)C2` [Example 49, 4-((1 S,5S)-6-(4-(1,1-Dioxidothiomorpholino)phenyl)-9,9-dimethyl-3,6-diazabicyclo[3.2.2]nonan-3-yl)-4-oxobutanenitrile], in assay [1], the response vs control in vivo at 200 mg/kg stood at 62%. In addition, the inhibition at 10 µM on LOX (setting [4]) was determined as 100%.
Consider `CC1(C)C[C@@H]2CN(C(=O)NCCO)C[C@H]1N(c1ccc(SCCO)cc1)C2` [Example 34, (1S,5S)-N-(2-Hydroxyethyl)-6-(4-((2-hydroxyethyl)thio)phenyl)-9,9-dimethyl-3,6-diazabicyclo[3.2.2]nonane-3-carboxamide], for which the inhibition at 10 µM on LOX (MDCK) came out at 100%.
With `CCOc1ccc(N2C[C@H]3CN(C(=O)N4CC[C@H](O)C4)C[C@@H]2C(C)(C)C3)cc1` [Example 15, ((1S,5S)-6-(4-ethoxyphenyl)-9,9-dimethyl-3,6-diazabicyclo[3.2.2]nonan-3-yl)((S)-3-hydroxypyrrolidin-1-yl)methanone], the inhibition at 10 µM at LOX (setting [4]) was found to be 84%.
On the same count and under the same terms, then `CCOc1ccc(N2C[C@H]3CN(C4=NCCO4)C[C@@H]2C(C)(C)C3)cc1` [Example 38, 2-((1S,5S)-6-(4-ethoxyphenyl)-9,9-dimethyl-3,6-diazabicyclo[3.2.2]nonan-3-yl)-4,5-dihydrooxazole], with 59%.
On the same count and under the same terms, then `CC1(C)C[C@@H]2CN(C(=O)N3CCS(=O)(=O)CC3)C[C@H]1N(c1cccc(N3CCS(=O)(=O)CC3)c1)C2` [Example 64, (1,1-dioxidothiomorpholino)((1S,5S)-6-(3-(1,1-dioxidothiomorpholino)phenyl)-9,9-dimethyl-3,6-diazabicyclo[3.2.2]nonan-3-yl)methanone], with 100%; and `CCOc1ccc(N2C[C@H]3CN(S(=O)(=O)N4CCOCC4)C[C@@H]2C(C)(C)C3)cc1` [Example 57, 4-(((1S,5S)-6-(4-ethoxyphenyl)-9,9-dimethyl-3,6-diazabicyclo[3.2.2]nonan-3-yl)sulfonyl)morpholine], with 93%.

These data come from patent publication US12060360B2, “Lysyl oxidase inhibitors” (The Institute of Cancer Research: Royal Cancer Hospital, priority 2017, dated 2024).
